In ChEMBL document CHEMBL5291721, “A preclinical secondary pharmacology resource illuminates target-adverse drug reaction associations of marketed drugs” (Nat Commun, 2023) one finds AC50 data, which are given here for 27 compounds.

One experiment deals with T1, Glucocorticoid receptor (Homo sapiens, UniProt P04150).
T1 sequence (P04150 whole entry): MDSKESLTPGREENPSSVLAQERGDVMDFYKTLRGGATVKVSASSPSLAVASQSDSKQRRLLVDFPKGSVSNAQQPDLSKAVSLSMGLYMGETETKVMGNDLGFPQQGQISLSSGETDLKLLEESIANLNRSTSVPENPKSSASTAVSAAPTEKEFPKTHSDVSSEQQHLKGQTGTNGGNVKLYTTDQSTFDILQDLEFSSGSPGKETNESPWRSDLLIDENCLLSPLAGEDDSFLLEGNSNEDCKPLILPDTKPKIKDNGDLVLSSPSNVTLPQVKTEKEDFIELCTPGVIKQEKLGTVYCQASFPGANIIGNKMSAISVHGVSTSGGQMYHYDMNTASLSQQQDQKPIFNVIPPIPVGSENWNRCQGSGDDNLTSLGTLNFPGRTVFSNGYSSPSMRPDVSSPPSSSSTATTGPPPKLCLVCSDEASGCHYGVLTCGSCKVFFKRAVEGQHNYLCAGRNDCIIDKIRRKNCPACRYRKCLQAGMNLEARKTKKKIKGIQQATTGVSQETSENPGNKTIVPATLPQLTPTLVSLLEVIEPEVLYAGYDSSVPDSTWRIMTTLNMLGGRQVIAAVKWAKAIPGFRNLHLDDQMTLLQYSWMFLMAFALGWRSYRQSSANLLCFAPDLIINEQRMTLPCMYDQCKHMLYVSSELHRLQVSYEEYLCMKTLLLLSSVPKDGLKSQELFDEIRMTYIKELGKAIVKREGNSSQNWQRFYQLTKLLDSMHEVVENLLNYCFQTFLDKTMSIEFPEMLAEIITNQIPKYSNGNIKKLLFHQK
Format: functional.

The target of experiment [1] is Epidermal growth factor receptor (Homo sapiens, UniProt P00533). Format: functional.
The target of experiment [2] is Receptor tyrosine-protein kinase erbB-2 (Homo sapiens, UniProt P04626). The class given is functional.
Sequence of Receptor tyrosine-protein kinase erbB-2 (P04626 whole entry): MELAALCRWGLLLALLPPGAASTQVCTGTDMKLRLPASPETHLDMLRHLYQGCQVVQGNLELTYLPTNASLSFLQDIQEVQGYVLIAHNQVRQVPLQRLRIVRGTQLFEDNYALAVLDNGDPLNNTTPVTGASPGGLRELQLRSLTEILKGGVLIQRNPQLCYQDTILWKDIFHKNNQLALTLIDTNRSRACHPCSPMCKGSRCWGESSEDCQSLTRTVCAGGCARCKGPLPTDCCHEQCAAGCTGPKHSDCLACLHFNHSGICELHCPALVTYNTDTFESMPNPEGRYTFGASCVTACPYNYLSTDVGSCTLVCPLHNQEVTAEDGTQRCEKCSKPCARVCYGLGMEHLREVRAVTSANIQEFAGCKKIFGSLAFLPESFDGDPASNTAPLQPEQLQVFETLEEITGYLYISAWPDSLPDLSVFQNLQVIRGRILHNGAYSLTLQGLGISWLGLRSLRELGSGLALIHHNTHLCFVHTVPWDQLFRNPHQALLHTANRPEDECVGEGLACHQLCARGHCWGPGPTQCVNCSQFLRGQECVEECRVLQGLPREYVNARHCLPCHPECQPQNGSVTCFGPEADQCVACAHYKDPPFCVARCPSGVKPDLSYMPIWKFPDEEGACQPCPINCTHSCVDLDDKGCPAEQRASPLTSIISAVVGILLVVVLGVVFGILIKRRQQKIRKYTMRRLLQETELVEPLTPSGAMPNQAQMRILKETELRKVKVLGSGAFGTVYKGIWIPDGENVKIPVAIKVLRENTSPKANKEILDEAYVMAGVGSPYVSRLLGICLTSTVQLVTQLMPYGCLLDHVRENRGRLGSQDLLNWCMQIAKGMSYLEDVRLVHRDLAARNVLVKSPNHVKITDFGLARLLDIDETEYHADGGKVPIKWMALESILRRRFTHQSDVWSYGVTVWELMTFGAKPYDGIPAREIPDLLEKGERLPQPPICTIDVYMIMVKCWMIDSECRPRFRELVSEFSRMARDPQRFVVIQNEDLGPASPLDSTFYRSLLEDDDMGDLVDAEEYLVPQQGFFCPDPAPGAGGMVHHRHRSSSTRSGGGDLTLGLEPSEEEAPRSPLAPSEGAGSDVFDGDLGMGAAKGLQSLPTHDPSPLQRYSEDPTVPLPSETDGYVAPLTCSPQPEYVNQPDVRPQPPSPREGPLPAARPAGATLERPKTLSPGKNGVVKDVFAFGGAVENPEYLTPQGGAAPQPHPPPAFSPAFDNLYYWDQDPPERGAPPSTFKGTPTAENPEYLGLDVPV
In experiment [3] the target is Beta-2 adrenergic receptor (Homo sapiens, UniProt P07550).
Sequence of Beta-2 adrenergic receptor (P07550 whole entry): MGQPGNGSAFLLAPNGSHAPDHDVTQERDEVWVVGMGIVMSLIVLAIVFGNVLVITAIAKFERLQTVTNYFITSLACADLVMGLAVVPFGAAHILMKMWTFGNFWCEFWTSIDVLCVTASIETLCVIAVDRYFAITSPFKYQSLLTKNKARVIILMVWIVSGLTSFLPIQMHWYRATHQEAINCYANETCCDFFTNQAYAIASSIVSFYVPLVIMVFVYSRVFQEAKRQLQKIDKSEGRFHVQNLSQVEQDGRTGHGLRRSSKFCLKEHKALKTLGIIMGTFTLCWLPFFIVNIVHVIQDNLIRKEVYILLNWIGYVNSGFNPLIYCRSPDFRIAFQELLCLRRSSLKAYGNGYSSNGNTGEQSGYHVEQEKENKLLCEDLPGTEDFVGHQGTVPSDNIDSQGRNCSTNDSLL
For experiment [4], the target named is T2, Alpha-2A adrenergic receptor (Homo sapiens, UniProt P08913).
T2 sequence (P08913 whole entry): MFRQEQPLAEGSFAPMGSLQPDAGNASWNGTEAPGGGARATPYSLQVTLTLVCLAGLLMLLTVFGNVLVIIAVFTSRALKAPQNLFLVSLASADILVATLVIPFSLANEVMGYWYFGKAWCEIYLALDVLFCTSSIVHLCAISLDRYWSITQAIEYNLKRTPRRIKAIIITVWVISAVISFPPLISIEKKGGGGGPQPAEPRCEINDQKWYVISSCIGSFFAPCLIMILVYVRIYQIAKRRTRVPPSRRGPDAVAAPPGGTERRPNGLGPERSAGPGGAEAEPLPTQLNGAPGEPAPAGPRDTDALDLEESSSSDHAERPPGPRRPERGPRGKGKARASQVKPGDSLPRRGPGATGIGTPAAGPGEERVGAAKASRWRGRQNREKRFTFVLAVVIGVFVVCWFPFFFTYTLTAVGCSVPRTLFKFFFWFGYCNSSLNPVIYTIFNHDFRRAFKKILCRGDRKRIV

Experiment [5] concerns the target Voltage-dependent N-type calcium channel subunit alpha-1B (Rattus norvegicus, UniProt Q02294). Format: functional.
The target of experiment [6] is T3, Alpha-1A adrenergic receptor (Homo sapiens, UniProt P35348).
T3 sequence (P35348 whole entry): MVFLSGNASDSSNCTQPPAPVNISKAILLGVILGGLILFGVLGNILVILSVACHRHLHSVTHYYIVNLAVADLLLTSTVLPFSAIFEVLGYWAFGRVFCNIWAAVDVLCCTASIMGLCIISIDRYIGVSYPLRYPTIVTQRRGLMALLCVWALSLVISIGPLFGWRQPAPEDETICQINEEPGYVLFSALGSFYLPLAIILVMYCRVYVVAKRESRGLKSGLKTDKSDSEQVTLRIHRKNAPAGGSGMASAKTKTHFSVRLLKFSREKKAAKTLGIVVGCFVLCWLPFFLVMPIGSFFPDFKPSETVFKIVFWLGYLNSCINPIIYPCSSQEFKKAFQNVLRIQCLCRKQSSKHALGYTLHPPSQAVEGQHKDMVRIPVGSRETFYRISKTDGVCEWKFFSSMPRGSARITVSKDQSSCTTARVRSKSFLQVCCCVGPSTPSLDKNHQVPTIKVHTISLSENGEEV

Experiment [7] has as its target T4, Muscarinic acetylcholine receptor M5 (Homo sapiens, UniProt P08912).
T4 sequence (P08912 whole entry): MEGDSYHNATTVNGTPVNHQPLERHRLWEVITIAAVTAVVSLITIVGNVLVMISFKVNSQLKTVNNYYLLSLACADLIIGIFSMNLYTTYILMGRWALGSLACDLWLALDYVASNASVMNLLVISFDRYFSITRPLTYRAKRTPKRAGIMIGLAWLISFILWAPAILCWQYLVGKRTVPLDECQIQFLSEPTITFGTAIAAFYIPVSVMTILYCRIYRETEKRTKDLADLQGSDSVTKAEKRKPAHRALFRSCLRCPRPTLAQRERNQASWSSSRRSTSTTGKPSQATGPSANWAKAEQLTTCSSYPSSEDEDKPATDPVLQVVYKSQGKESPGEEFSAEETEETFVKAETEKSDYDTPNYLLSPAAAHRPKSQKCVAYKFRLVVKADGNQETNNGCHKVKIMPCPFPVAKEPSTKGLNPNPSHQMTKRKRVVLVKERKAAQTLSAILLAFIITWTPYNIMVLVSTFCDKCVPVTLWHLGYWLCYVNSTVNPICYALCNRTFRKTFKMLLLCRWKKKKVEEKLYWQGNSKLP

Experiment [8] deals with T5, 5-hydroxytryptamine receptor 1A (Homo sapiens, UniProt P08908).
T5 sequence (P08908 whole entry): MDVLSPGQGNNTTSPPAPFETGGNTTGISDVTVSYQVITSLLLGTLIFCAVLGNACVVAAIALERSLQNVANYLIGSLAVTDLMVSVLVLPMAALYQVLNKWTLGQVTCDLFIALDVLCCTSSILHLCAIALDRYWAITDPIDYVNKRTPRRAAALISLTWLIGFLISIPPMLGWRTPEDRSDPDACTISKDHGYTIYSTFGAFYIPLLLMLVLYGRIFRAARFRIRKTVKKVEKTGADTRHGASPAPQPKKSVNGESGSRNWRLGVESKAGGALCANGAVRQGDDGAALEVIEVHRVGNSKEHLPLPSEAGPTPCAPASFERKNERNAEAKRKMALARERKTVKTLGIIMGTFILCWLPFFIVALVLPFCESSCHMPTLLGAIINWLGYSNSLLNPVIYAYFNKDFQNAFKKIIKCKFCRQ

Experiment [9] addresses 5-hydroxytryptamine receptor 7 (Homo sapiens, UniProt P34969).

Bounds are passed on as bounds.
Also: assay procedure not described here.

Sequence of 5-hydroxytryptamine receptor 7 (P34969 whole entry): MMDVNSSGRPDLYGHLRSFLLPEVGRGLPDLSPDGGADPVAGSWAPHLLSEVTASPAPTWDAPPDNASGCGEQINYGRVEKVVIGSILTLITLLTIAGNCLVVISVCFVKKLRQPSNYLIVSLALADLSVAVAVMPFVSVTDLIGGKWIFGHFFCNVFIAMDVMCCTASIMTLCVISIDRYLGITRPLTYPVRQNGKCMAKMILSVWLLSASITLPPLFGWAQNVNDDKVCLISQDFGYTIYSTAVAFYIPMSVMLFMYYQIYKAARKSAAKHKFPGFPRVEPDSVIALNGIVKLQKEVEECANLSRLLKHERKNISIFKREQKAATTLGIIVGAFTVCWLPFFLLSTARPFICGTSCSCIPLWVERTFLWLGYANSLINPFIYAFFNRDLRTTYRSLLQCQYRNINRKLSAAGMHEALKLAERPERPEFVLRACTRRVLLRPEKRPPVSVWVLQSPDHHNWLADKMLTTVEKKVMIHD
Sequence of Voltage-dependent N-type calcium channel subunit alpha-1B (Q02294 whole entry): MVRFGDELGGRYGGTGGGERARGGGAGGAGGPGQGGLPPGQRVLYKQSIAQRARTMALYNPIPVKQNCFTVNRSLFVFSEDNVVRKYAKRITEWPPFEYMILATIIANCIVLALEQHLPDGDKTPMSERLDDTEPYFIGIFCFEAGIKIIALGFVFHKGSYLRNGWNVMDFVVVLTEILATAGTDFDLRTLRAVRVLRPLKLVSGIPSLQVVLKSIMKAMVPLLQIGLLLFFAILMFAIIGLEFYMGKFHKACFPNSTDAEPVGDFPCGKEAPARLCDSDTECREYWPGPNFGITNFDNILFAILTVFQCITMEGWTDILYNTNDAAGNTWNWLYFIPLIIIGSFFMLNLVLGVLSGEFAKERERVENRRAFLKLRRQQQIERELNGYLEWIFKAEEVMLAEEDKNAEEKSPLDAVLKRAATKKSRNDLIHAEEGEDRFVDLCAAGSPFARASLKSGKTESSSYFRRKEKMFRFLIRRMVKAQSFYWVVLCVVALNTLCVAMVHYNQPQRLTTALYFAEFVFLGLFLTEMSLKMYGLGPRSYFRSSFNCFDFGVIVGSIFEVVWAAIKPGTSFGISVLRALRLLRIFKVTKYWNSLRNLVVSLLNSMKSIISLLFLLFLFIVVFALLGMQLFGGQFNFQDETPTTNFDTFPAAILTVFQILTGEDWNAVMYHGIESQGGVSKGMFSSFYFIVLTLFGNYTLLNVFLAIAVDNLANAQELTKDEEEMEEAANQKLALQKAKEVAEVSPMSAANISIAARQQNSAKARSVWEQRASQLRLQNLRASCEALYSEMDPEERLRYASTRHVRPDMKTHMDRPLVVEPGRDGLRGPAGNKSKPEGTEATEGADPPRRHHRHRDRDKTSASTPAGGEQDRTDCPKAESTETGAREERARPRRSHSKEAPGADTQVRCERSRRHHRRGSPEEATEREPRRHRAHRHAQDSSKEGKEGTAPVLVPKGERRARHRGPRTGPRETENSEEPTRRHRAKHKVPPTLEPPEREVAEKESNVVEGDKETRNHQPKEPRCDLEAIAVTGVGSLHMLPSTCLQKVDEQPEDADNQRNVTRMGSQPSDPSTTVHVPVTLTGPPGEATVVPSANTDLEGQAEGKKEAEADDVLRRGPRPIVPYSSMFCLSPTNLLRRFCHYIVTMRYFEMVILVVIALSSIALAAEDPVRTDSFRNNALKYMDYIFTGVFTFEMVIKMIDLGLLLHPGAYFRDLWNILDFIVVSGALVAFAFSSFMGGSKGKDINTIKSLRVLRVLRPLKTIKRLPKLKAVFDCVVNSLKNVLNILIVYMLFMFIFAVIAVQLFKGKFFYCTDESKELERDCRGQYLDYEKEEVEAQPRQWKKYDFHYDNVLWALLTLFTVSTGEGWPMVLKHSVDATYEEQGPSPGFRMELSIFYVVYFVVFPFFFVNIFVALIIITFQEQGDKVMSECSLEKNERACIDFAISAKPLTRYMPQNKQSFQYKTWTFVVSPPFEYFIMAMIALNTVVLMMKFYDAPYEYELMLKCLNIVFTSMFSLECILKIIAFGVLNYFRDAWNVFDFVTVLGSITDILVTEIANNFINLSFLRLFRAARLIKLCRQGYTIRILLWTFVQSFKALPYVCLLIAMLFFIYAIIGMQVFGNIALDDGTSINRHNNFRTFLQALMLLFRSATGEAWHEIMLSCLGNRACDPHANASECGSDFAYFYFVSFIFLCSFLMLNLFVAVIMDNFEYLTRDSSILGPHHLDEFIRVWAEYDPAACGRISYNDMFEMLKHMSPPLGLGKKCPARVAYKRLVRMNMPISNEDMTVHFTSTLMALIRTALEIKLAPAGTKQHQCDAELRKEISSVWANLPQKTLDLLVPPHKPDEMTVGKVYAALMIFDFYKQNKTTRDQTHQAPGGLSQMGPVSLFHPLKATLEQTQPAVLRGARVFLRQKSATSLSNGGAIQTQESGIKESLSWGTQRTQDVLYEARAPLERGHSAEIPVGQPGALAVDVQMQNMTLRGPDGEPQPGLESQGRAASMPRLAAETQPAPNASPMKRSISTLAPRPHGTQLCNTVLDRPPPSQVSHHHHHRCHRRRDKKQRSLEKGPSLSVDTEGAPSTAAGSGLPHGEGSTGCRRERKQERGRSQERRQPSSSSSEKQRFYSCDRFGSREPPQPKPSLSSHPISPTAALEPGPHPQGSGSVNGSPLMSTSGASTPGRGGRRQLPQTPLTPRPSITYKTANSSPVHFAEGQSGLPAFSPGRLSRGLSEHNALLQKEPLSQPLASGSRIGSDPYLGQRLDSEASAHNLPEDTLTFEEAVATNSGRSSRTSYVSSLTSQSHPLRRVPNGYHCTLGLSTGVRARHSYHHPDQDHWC

Take `CC(=N)N1CC[C@H](SC2=C(C(=O)O)N3C(=O)[C@H]([C@@H](C)O)[C@H]3C2)C1`: the AC50 (on Glucocorticoid receptor; in [1]; in experiment [2]) was more than 300 µM each time.

Regarding `CC(/C=C1\SC(=S)N(CC(=O)O)C1=O)=C\c1ccccc1`, the AC50 in experiment [3] was more than 30 µM.

As for `CC1(C)S[C@@H]2[C@H](NC(=O)[C@H](N)c3ccc(O)cc3)C(=O)N2[C@H]1C(=O)O` [AMOXICILLIN], the AC50 in [4] was more than 10 µM; in experiment [3], more than 30 µM; in experiment [5], more than 10 µM; in experiment [6], more than 10 µM; in experiment [7], more than 10 µM; in experiment [8] it was more than 10 µM. Also, in [9], the concentration at half-maximal activity (AC50) is more than 10 µM.

Turning to `O=C1CN2Cc3c(ccc(Cl)c3Cl)N=C2N1` [ANAGRELIDE], the AC50 in experiment [3] and in experiment [8] was more than 10 µM in each case.

As to `CCc1oc2ccccc2c1C(=O)c1cc(Br)c(O)c(Br)c1` [BENZBROMARONE], the concentration at half-maximal activity (AC50) on Glucocorticoid receptor is more than 30 µM; in [4], more than 10 µM; in experiment [3], more than 30 µM; in experiment [8], more than 10 µM.

As for `[H]/N=C(\N/C(=N/[H])NCCCCCCNC(=N)NC(=N)Nc1ccc(Cl)cc1)Nc1ccc(Cl)cc1` [CHLORHEXIDINE], the AC50 in experiment [4] is more than 10 µM; in experiment [3], 6.5 µM.

Turning to `Clc1cccc(Cl)c1N=C1NCCN1` [CLONIDINE], the AC50 in experiment [5] and in experiment [8] was more than 10 µM throughout.

On to `COC(=O)[C@H](c1ccccc1Cl)N1CCc2sccc2C1` [CLOPIDOGREL], for which the AC50 was more than 30 µM on Glucocorticoid receptor; more than 10 µM in experiment [4]; more than 30 µM in experiment [3]; more than 10 µM in [5]; more than 10 µM in experiment [6]; more than 10 µM in [7]. Also, the AC50 in experiment [8] and in [9] was more than 10 µM each time.

For `CN1C[C@H](C(=O)N[C@]2(C)O[C@@]3(O)[C@@H]4CCCN4C(=O)[C@H](Cc4ccccc4)N3C2=O)C[C@@H]2c3cccc4[nH]cc(c34)C[C@H]21` [DIHYDROERGOTAMINE], the concentration at half-maximal activity (AC50) in experiment [5] is more than 10 µM; in experiment [8] it was 0.0126 µM.

At Glucocorticoid receptor, `C#Cc1cccc(Nc2ncnc3cc(OCCOC)c(OCCOC)cc23)c1` [ERLOTINIB] returned an AC50 of more than 30 µM.

`CC1(C)O[C@@H]2C[C@H]3[C@@H]4C[C@H](F)C5=CC(=O)C=C[C@]5(C)[C@H]4[C@@H](O)C[C@]3(C)[C@]2(C(=O)CO)O1` [FLUNISOLIDE]: on Glucocorticoid receptor, the AC50 is more than 30 µM.

The compound `Nc1nc(O)c2ncn(COC(CO)CO)c2n1` [GANCICLOVIR] registered a half-maximal activity concentration (AC50) in experiment [3] of more than 30 µM.

Consider `Cc1cnc(NC(=O)C2=C(O)c3ccccc3S(=O)(=O)N2C)s1` [MELOXICAM], for which the AC50 in experiment [4], in experiment [3], in [5], in experiment [6], in experiment [7] and in experiment [8] was more than 10 µM throughout. This compound also showed an AC50 in experiment [9] of more than 10 µM.

Take `CC(=O)/N=c1/sc(S(N)(=O)=O)nn1C` [METHAZOLAMIDE]: the half-maximal activity concentration (AC50) in experiment [3] is more than 10 µM.

As for `CC(=O)Oc1ccccc1C(=O)Nc1ncc([N+](=O)[O-])s1` [NITAZOXANIDE], the AC50 in [3] stood at 7.8 µM.

With `CNCCC=C1c2ccccc2CCc2ccccc21` [NORTRIPTYLINE], in [7], the AC50 worked out at 0.262 µM.

As to `CN(C)c1cc(CNCC(C)(C)C)c(O)c2c1C[C@H]1C[C@H]3[C@H](N(C)C)C(O)=C(C(N)=O)C(=O)[C@@]3(O)C(O)=C1C2=O` [OMADACYCLINE], in experiment [7], the AC50 is more than 30 µM.

In the case of `COc1ccnc(C[S+]([O-])c2nc3ccc(OC(F)F)cc3[nH]2)c1OC` (stereo unspecified) [PANTOPRAZOLE], the concentration at half-maximal activity (AC50) in experiment [4], in experiment [3], in experiment [5], in experiment [6] and in experiment [8] was more than 10 µM in each case.

Regarding `CNC[C@H](O)c1cccc(O)c1` [PHENYLEPHRINE], the AC50 in experiment [5], in experiment [7], in experiment [8] and in [9] was more than 10 µM throughout.

On Glucocorticoid receptor, `CNC(=O)c1cc(Oc2ccc(NC(=O)Nc3ccc(Cl)c(C(F)(F)F)c3)c(F)c2)ccn1` [REGORAFENIB] came in with a concentration at half-maximal activity (AC50) of 17 µM.

On to `CCOc1cc(CC(=O)N[C@@H](CC(C)C)c2ccccc2N2CCCCC2)ccc1C(=O)O` [REPAGLINIDE], for which the AC50 at Glucocorticoid receptor is more than 30 µM.

Regarding `NC(=O)c1ncn([C@@H]2O[C@H](CO)[C@@H](O)[C@H]2O)n1` [RIBAVIRIN], in experiment [3], the half-maximal activity concentration (AC50) was more than 10 µM.

Compound `O=C(Nc1c(Cl)cncc1Cl)c1ccc(OC(F)F)c(OCC2CC2)c1` [ROFLUMILAST] showed an AC50 in experiment [3] of more than 30 µM.

In turn, `CC(C)N(CCCCOCC(=O)NS(C)(=O)=O)c1cnc(-c2ccccc2)c(-c2ccccc2)n1` [SELEXIPAG] came in with a half-maximal activity concentration (AC50) in [3] of more than 30 µM.

Regarding `CCCCNc1ccc(C(=O)OCCN(C)C)cc1` [TETRACAINE], the AC50 in experiment [4], in experiment [3], in experiment [5], in experiment [6], in [7] and in experiment [8] was more than 10 µM each time. Further, the concentration at half-maximal activity (AC50) in experiment [9] is more than 10 µM.

In the case of `Cn1c(=O)c2[nH]cnc2n(C)c1=O` [THEOPHYLLINE], the AC50 in [3], in [5] and in experiment [8] was more than 10 µM throughout.

For the compound `CC1(C)O[C@@H]2[C@@H](CO[C@@]3(COS(N)(=O)=O)OC(C)(C)O[C@@H]23)O1` [TOPIRAMATE], the AC50 in experiment [4], in experiment [3], in experiment [5], in experiment [6], in experiment [7] and in experiment [8] was more than 10 µM in each case. Also, the half-maximal activity concentration (AC50) in [9] is more than 10 µM.

As usually defined, the AC50 is the midpoint of the concentration-response curve, whichever way the signal moves.
